Experimental data published in the supplement of paper PMC10307832.

Legend:
Assay in all cases: relative viability (nuclei count vs DMSO), 5 days (fraction); higher = more cells survive
[1] = compound: CN1C=C(C2=CC=CC=C21)/C=C\3/C4=C(C=CC=N4)NC3=O + CC(=O)Nc1cccc(-n2c(=O)n(C3CC3)c(=O)c3c(Nc4ccc(I)cc4F)n(C)c(=O)c(C)c32)c1 [Trametinib] (partner 0.02 µM)
How it was run: (§1)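 Each reported value is a median over duplicate plates. It expresses relative viability: treated-well nuclei count divided by vehicle-well nuclei count. Lung cancer cell lines in 1536-well plates were dosed by pin tool a day after seeding, alone with one drug or with a fixed anchor-drug dose plus five library-drug doses (not always all listed) in √10 steps, and nuclei were counted after 5 days.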

[2] = compound: CN1C=C(C2=CC=CC=C21)/C=C\3/C4=C(C=CC=N4)NC3=O + Nc1ncn([C@H]2C[C@H](O)[C@@H](CO)O2)c(=O)n1 [Decitabine] (partner 2 µM)
How it was run: as §1

[3] = compound: CN1C=C(C2=CC=CC=C21)/C=C\3/C4=C(C=CC=N4)NC3=O + CS(=O)(=O)N1CCN(Cc2cc3nc(-c4cccc5[nH]ncc45)nc(N4CCOCC4)c3s2)CC1 [Pictilisib] (partner 1 µM)
How it was run: as §1

[4] = compound: CC(=O)Nc1cccc(-n2c(=O)n(C3CC3)c(=O)c3c(Nc4ccc(I)cc4F)n(C)c(=O)c(C)c32)c1 [Trametinib] + C[C@]1(O)C[C@@H](c2nc(-c3ccc4ccc(-c5ccccc5)nc4c3)c3c(N)nccn32)C1 [Linsitinib] (partner 1 µM)
How it was run: as §1

Cell Line | relative viability ([1]; first compound 0.02 µM) | relative viability ([1]; first compound 0.06325 µM) | relative viability ([1]; first compound 0.2 µM) | relative viability ([1]; first compound 0.6325 µM) | relative viability ([1]; first compound 2 µM) | relative viability ([2]; first compound 0.02 µM) | relative viability ([2]; first compound 0.06325 µM) | relative viability ([2]; first compound 0.2 µM) | relative viability ([2]; first compound 0.6325 µM) | relative viability ([2]; first compound 2 µM) | relative viability ([3]; first compound 0.02 µM) | relative viability ([3]; first compound 0.06325 µM) | relative viability ([3]; first compound 0.6325 µM) | relative viability ([3]; first compound 2 µM) | relative viability ([4]; first compound 0.0025 µM) | relative viability ([4]; first compound 0.007906 µM) | relative viability ([4]; first compound 0.025 µM) | relative viability ([4]; first compound 0.07906 µM) | relative viability ([4]; first compound 0.25 µM) | relative viability ([3]; first compound 0.2 µM)
ChaGo-K-1 | 0.864 | 0.917 | 0.868 | 0.871 | 0.871 | 0.519 | 0.515 | 0.5 | 0.534 | 0.476 | 0.607 | 0.62 | 0.403 | 0.571 |  |  |  |  |  | 
COR-L 105 | 0.402 | 0.462 | 0.396 | 0.512 | 0.506 | 0.633 | 0.745 | 0.63 | 0.68 | 0.64 | 0.412 | 0.383 | 0.364 | 0.364 | 0.788 | 0.754 | 0.49 | 0.394 | 0.367 | 0.385
NCI-H1944 | 0.359 | 0.359 |  | 0.405 | 0.444 | 0.423 | 0.419 |  | 0.415 | 0.416 | 0.323 | 0.326 | 0.294 | 0.314 | 1.08 | 0.79 | 0.643 | 0.606 | 0.428 | 
NCI-H2009 | 0.261 | 0.255 | 0.293 | 0.296 | 0.263 | 0.303 | 0.355 | 0.352 | 0.382 | 0.417 | 0.804 | 0.672 | 0.8 | 0.792 | 0.916 | 0.717 | 0.483 | 0.472 | 0.334 | 0.682
SW 900 | 0.763 |  |  | 0.676 | 0.799 | 0.366 |  |  | 0.433 | 0.483 |  |  |  |  |  |  |  |  |  | 
NCI-H441 | 0.468 | 0.511 | 0.492 | 0.544 | 0.52 | 0.225 | 0.247 | 0.23 | 0.229 | 0.497 | 0.477 | 0.426 | 0.402 | 0.595 | 0.553 | 0.471 | 0.293 | 0.253 | 0.21 | 0.474
NCI-H1437 | 0.596 | 0.593 | 0.545 | 0.453 | 0.531 | 0.593 | 0.591 | 0.527 | 0.664 | 0.668 | 0.432 | 0.399 | 0.403 | 0.493 | 0.996 | 0.412 | 0.294 | 0.209 | 0.176 | 0.466
ABC-1 |  |  |  |  |  | 1.3 | 0.941 | 0.829 | 0.909 | 1.15 | 0.774 | 0.681 | 0.663 | 0.608 | 0.673 | 0.462 | 0.537 | 0.421 | 0.41 | 0.682
EBC-1 |  |  |  |  |  |  |  |  |  |  | 0.242 | 0.256 | 0.287 | 0.309 | 1 | 1.15 | 0.456 | 0.407 | 0.189 | 0.283
NCI-H1703 |  |  |  |  |  |  |  |  |  |  | 0.232 | 0.245 | 0.283 | 0.23 | 0.692 | 0.821 | 0.674 | 0.72 | 0.352 | 0.257
NCI-H1563 |  |  |  |  |  |  |  |  |  |  | 0.587 | 0.618 | 0.747 | 0.682 | 1.22 | 1.08 | 1.1 | 1.12 | 0.808 | 0.641
NCI-H2228 | 0.379 | 0.464 | 0.24 | 0.285 | 0.566 |  |  |  |  |  | 0.378 | 0.371 | 0.327 | 0.27 | 0.582 | 0.764 | 0.646 | 0.472 | 0.396 | 
NCI-H1299 |  |  |  |  |  |  |  |  |  |  | 0.567 | 0.811 | 0.824 | 0.894 | 0.955 | 0.953 | 0.9 | 0.726 | 0.386 | 0.8
NCI-H2170 | 0.915 | 0.949 | 0.917 | 0.954 | 0.875 | 0.481 | 0.487 | 0.458 | 0.447 | 0.411 |  | 0.312 | 0.317 | 0.242 |  |  |  |  |  | 0.235
A549 |  |  |  |  |  | 0.332 | 0.207 | 0.133 | 0.225 | 0.324 | 0.544 | 0.474 | 0.46 | 0.529 | 0.461 | 0.387 | 0.203 | 0.231 | 0.0933 | 0.465
NCI-H522 | 0.746 | 0.712 | 0.793 | 0.752 | 0.852 | 0.598 | 0.644 | 0.716 | 0.637 | 0.695 |  |  |  |  |  |  |  |  |  | 
NCI-H1650 | 0.559 | 0.535 | 0.559 | 0.582 | 0.53 | 0.419 | 0.427 | 0.378 | 0.385 | 0.45 | 0.539 | 0.561 | 0.505 | 0.573 |  |  |  |  |  | 0.436
NCI-H1648 | 0.691 | 0.543 | 0.42 | 0.532 | 0.482 | 0.5 | 0.453 | 0.496 | 0.448 | 0.327 |  |  |  |  |  |  |  |  |  | 
NCI-H2342 | 0.921 | 0.753 | 0.725 | 0.655 | 0.686 | 0.685 | 0.702 | 0.674 | 0.693 | 0.623 |  |  |  |  |  |  |  |  |  | 
Calu-6 |  |  |  |  |  |  |  |  |  |  | 0.841 | 0.776 | 0.936 | 0.897 | 0.951 | 0.719 | 0.35 | 0.15 | 0.124 | 0.9
